In patent publication US8614215B2, “Quinoxaline inhibitors of phosphoinositide-3-kinases (PI3Ks)” (Merck Serono SA, priority 2007, dated 2013):

Columns and labels:
[1] = test system: IgM-induced Akt phosphorylation in B cell; test: IgM-induced Akt phosphorylation in B cell (PBMC, flow cytometry); assay type: cell-based; conditions: human PBMC, CD19+ IgM+ B cells, read-out: IC50 μM, inhibition of IgM-induced Akt phosphorylation
Experimental: Human PBMC were prepared from a Buffy coat (Geneve Hospital) after a Ficoll gradient (Ficoll-Paque™ Plus PHARMACIA ref: 17-1440-03).
Cell concentration was adjusted to 10^6 cells per mL in RPMI (GIBCO Ref: 72400-21) without serum. Before stimulation, 90 μl of PBMC suspension was incubated with 10 μl of diluted compound in a 96 well round bottom plate for 20 minutes at 37° C.
For B cell activation, 30 μl of Fab′2 Goat anti IgM (Jackson Immuno-research) at10 μg/mL was added to each well. After 5 minutes, cell activation was stopped with 4% paraformaldehyde (10 minutes at room temperature).
Fixed PBMC were then treated for 20 minutes with 0.15% Triton, washed twice with PBS and permeabilized with 50% methanol for 15 minutes.
PBMC were washed twice in PBS, resuspended in: PBS-4% FCS and incubated with anti P-Akt ( 1/100 dilution) for one h at room temperature.
After one wash, PBMC were further stained for 30 minutes with a mixture of anti-CD19-PE (BD Biosciences), anti-IgM-FITC (BD Biosciences) and goat anti rabbit IgG-Alexa 647 (Molecular probe).
After washing, PBMC (Peripheral Blood Mononuclear Cells) were analysed on a FACSCalibur instrument (BD Biosciences) equipped with a 633 helium-neon laser, or stored at 4° C. for further analysis. 510^3 B cells events were gathered per sample in the CD19 positive region.
For the analysis, a threshold was applied on P-Akt histogram of CD19+ IgM+ lymphocytes cells from the non stimulated samples and the percentage of cells above this threshold was determined for each sample.

[2] = test system: IgM-induced Akt phosphorylation in B cell in the presence of whole blood; test: IgM-induced Akt phosphorylation in B cell in the presence of whole blood; assay type: cell-based; conditions: Homo sapiens, CD19+ IgM+ cells, read-out: IC50 μM, inhibition of IgM-induced Akt phosphorylation in the presence of whole blood
Experimental: 100 μl of blood are pre-incubated in falcon tube (352063) for 20 minutes at 37° C.
For B cell activation 100 μl of Fab′2 Goat anti Human IgM (30 ug/mL final) is added to each tube and cells are maintained at 37° C.
After 5 minutes, cell activation is stopped with 130 μl Formaldehyde 10% (4% final) and cells are left 10 minutes at room temperature.
Fixed cells are then treated 30 minutes with Triton 0.1% final (add 1 mL of 0.15% Triton)
After several washes with PBS (red cells lysed progressively during washes, 3-4 washes are necessary), cells are transferred in 96 well plate and permeabilized with 50% ice cold Methanol (resuspend first the cells with 80 μl PBBS and then with 80 μl 100% ice cold Methanol) and put on ice for 15 minutes. Plate can be stored in −20° C. in methanol and surface staining performed another day).
Cells are washed twice with PBS and once with the staining buffer-PBS-4% FCS.
Cells are incubated with anti P-Akt (1/70 dilution) In staining buffer for one h.
After a wash with staining buffer, cells are stained with a mixture of anti CD19-PE (3 ul/well), anti-IGM-FITC (3 ul/well), Goat anti rabbit IgG-Alexa 647 (1/500), goat IgG (1/200) for 30 minutes.
After a wash, cells are resuspended in staining buffer or PBS, kept in fridge or immediately passed on a FACSCalibur instrument (BD Biosciences) equipped with a 633 helium-neon laser (red laser).
P-akt histogram of CD19+IGM+ cells is represented and a threshold is set with the non stimulated sample. The parameter reported for each sample is the % of positive cells above this cursor. A representative example is set out in FIG. 1.

[3] = Ex-vivo IgM-induced Akt phosphorylation in mouse after oral administration; conditions: male, C57Bl/6, blood
Experimental: Compounds are dissolved in 0.5% Carboxymethylcellulose containing 0.25% Tween 20 in water and administered orally to each mouse (6-8 weeks old C57B1/6 males from janvier) in a volume of 10 mL/kg. Half an hour before blood collection, heparin at 100 U/kg is injected intraperitonealy to each mouse. At appropriate Tm (maximum exposure) mice are sacrificed and blood collected by intra-cardiac puncture in heparinised tubes.
Blood is pre-incubated at 37° C. for 20 minutes, then an equal volume of Fab′2 Goat anti-Mouse IgM (μspecific, Jackson ImmunoResearch) at 60 μg/mL is added to each tube. B cell activation is terminated after 3 minutes using formaldehyde 4% final and red blood cells are lysed with another 30 minutes Triton X-100 0.1% treatment. Further to several washes with PBS, cells are transferred in a 96 well plate, permeabilized with 50% ice cold Methanol and put on ice for 15 minutes.
Cells were washed PBS before being incubated for one hour with a Rabbit anti Phospho-Akt antibody (4058 from Cell Signaling) in PBS-4% FCS. […]
Cells were analysed on a FACSCalibur instrument (BD Biosciences) equipped with a 633 helium-neon laser (red laser) and 5.10^3 B cells are collected. A threshold was applied on P-Akt histogram of B220^+ IgM+ lymphocytes from the non stimulated tube and the percentage of cells above this threshold is determined for each sample.

[4] = test system: Human recombinant GST-PI3K; test: PI3K induced-lipid phosphorylation, neomycin-SPA scintillation proximity assay; assay type: biochemical; conditions: Human recombinant GST-PI3K, SPA
Class I PI3-kinases = conditions: Fruman et al., 1998; read-out: IC50 against each of the various Class I PI3-kinases; cited from earlier work
CK2 protein kinase = CK2 protein kinase (Homo sapiens (Human), UniProt P68400); conditions: Fruman et al., 1998; cited from earlier work
CK2 protein kinase, sequence (P68400 whole entry): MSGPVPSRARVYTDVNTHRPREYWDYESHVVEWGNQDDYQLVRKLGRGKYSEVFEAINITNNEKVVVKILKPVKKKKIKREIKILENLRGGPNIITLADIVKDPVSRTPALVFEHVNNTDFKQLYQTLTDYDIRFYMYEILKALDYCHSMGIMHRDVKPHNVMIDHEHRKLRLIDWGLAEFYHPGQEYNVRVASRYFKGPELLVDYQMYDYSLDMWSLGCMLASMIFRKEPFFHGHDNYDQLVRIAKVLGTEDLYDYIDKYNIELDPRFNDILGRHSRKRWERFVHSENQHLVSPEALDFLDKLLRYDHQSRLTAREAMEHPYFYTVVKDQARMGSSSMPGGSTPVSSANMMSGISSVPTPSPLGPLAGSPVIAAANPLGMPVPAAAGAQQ

| Compound | IC50 [1] [µM] | IC50 [2] [µM] | Tmax [3] [min] | IC50 [4] [µM] | IC50 (Class I PI3-kinases) [µM] | IC50 (CK2 protein kinase) [µM] |
| --- | --- | --- | --- | --- | --- | --- |
| COc1ccc(CN2CCN(C)CC2)c(Nc2nc3ccccc3nc2NS(=O)(=O)c2cccnc2)c1 [Example 81, N-[3-({5-methoxy-2-[(4-methylpiperazin-1-yl)methyl]phenyl}amino)quinoxalin-2-yl]pyridine-3-sulfonamide] | 0.03 | 1.9 | 15 | 0.049 | – | – |
| COC[C@H]1OC(=O)c2coc3c2[C@@]1(C)C1=C(C3=O)[C@@H]2CCC(=O)[C@@]2(C)C[C@H]1OC(C)=O [Wortmannin] | – | – | – | – | 0.001 to 0.01 | – |
| COc1ccc(CC2CCN(C)CC2)c(Nc2nc3ccccc3nc2NS(C)(=O)=O)c1 [Example 13, N-[3-({5-methoxy-2-[(1-methylpiperidin-4-yl)methyl]phenyl}amino)quinoxalin-2-yl]methanesulfonamide] | 0.07 | 1 | – | 0.11 | – | – |
| COc1ccc(CC2CCN(C)CC2)c(Nc2nc3ccccc3nc2NS(=O)(=O)c2cn(C)cn2)c1 [Example 11, N-[3-({5-methoxy-2-[(1-methylpiperidin-4-yl)methyl]phenyl}amino)quinoxalin-2-yl]-1-methyl-1H-imidazole-4-sulfonamide] | 0.07 | 0.3 | – | 0.043 | – | – |
| O=c1cc(N2CCOCC2)oc2c(-c3ccccc3)cccc12 [LY294002] | – | – | – | – | – | 5000 to 10000 |
